Test results reported in patent US7521478B2, “Total synthesis of myriaporones” (Pharma Mar, S.A.U., priority 2002, dated 2009).

Experiments:
Assay type in all cases: cell-based
DU-145 = test: Inhibition of cell growth by colorimetric SRB assay, DU-145; settings: Homo sapiens, DU-145, 48 hours exposure; for CC50: cell killing, read-out: LC50 (the source's name); for IC (total growth inhibition): read-out: TGI
Text: (§1) The finality of these assays is to interrupt the growth of a “in vitro” tumor cell culture by means a continued exhibition of the cells to the sample to be testing.
(§2) Inhibition of Cell Growth by Colorimetric Assay.
(§3) A colorimetric type of assay, using sulforhodamine B (SRB) reaction has been adapted for a quantitative measurement of cell growth and viability (following the technique described by P. A. Skehan, et al., J. Natl. CancerInst. 1990, 82, 1107-1112).
(§4) This form of assay employs 96 well cell culture microplates of 9 mm diameter (T. Mosmann et al., J. of Immuological Methods 1983, 65, 55-63; G. T. Faircloth et al., J. of Tissue and Culture Methods 1988, 11, 201-205). Most of the cell lines are obtained from American Type Culture Collection (ATCC) derived from different human cancer types.
(§5) Cells are maintained in RPMI 1640 10% FBS, supplemented with 0.1 g/L penicillin and 0.1 g/L streptomycin sulfate and then incubated at 37° C., 5% CO2 and 98% humidity. For the experiments, cells were harvested from subconfluent cultures using trypsin and resuspended in fresh medium before plating.
(§6) Cells are seeded in 96 well microtiter plates, at 5×10^3 cells per well in aliquots of 195 μL medium, and they are allowed to attach to the plate surface by growing in drug free medium for 18 hours. Afterward, samples are added in aliquots of 5 μL in a ranging from 10 to 10^−8 μg/mL, dissolved in DMSO/EtOH/PBS (0.5:0.5:99). After 48 hours exposure, the antitumor effect are measured by the SRB methodology: cells are fixed by adding 50 μL of cold 50% (wt/vol) trichloroacetic acid (TCA) and incubated for 60 minutes at 4° C. Plates are washed with deionizer water and dried. One hundred μl of SRB solution (0.4% wt/vol in 1% acetic acid) is added to each microliter well and incubated for 10 minutes at room temperature. Unbound SRB is removed by washing with 1% acetic acid. Plates are air dried and bound stain is solubilized with Tris buffer. Optical densities are read on a automated spectrophotometric plate reader at a single wavelength of 490 nm.
(§7) The values for mean +/−SD of data from triplicate wells are calculated. Some parameters for cellular responses can be calculated: GI=growth inhibition, TGI=total growth inhibition (cytostatic effect) and LC=cell killing (cytotoxic effect).

LNCaP = test: Inhibition of cell growth by colorimetric SRB assay, LN-caP; settings: Homo sapiens, LN-caP, 48 hours exposure; for CC50: cell killing, read-out: LC50 (the source's name); for IC (total growth inhibition): read-out: TGI
Text: as §1, §2, §3, §4, §5, §6, §7

IGROV = test: Inhibition of cell growth by colorimetric SRB assay, IGROV; settings: Homo sapiens, 48 hours exposure; for CC50: cell killing, read-out: LC50 (the source's name); for IC (total growth inhibition): read-out: TGI
Text: as §1, §2, §3, §4, §5, §6, §7

IGROV-ET = test: Inhibition of cell growth by colorimetric SRB assay, IGROV-ET; settings: Homo sapiens, IGROV-ET, 48 hours exposure; for CC50: cell killing, read-out: LC50 (the source's name); for IC (total growth inhibition): read-out: TGI
Text: as §1, §2, §3, §4, §5, §6, §7

SK-MEL-28 = test: Inhibition of cell growth by colorimetric SRB assay, MEL-28; settings: Homo sapiens, SK-MEL-28, MEL-28, 48 hours exposure; for CC50: cell killing, read-out: LC50 (the source's name); for IC (total growth inhibition): read-out: TGI
Text: as §1, §2, §3, §4, §5, §6, §7

A-549 = test: Inhibition of cell growth by colorimetric SRB assay, A-549; settings: Homo sapiens, A549, A-549, 48 hours exposure; for CC50: cell killing, read-out: LC50 (the source's name); for IC (total growth inhibition): read-out: TGI
Text: as §1, §2, §3, §4, §5, §6, §7

K-562 = test: Inhibition of cell growth by colorimetric SRB assay, K-562; settings: Homo sapiens, K562, K-562, 48 hours exposure; for CC50: cell killing, read-out: LC50 (the source's name); for IC (total growth inhibition): read-out: TGI
Text: as §1, §2, §3, §4, §5, §6, §7

PANC-1 = test: Inhibition of cell growth by colorimetric SRB assay, PANC-1; settings: Homo sapiens, PANC-1, 48 hours exposure; for CC50: cell killing, read-out: LC50 (the source's name); for IC (total growth inhibition): read-out: TGI
Text: as §1, §2, §3, §4, §5, §6, §7

HT-29 = test: Inhibition of cell growth by colorimetric SRB assay, HT-29; settings: Homo sapiens, HT-29, 48 hours exposure; for CC50: cell killing, read-out: LC50 (the source's name); for IC (total growth inhibition): read-out: TGI
Text: as §1, §2, §3, §4, §5, §6, §7

LoVo = test: Inhibition of cell growth by colorimetric SRB assay, LOVO; settings: Homo sapiens, LOVO, 48 hours exposure; for LC50: cell killing, read-out: LC50; for IC (total growth inhibition): read-out: TGI
Text: as §1, §2, §3, §4, §5, §6, §7

LoVo-Dox = test: Inhibition of cell growth by colorimetric SRB assay, LOVO-DOX; settings: Homo sapiens, LOVO-DOX, 48 hours exposure; for LC50 (concentration for 50% cell killing): read-out: LC50; for IC (total growth inhibition): read-out: TGI
Text: as §1, §2, §3, §4, §5, §6, §7

HeLa = test: Inhibition of cell growth by colorimetric SRB assay, HELA; settings: Homo sapiens, HELA, 48 hours exposure; for CC50: cell killing, read-out: LC50 (the source's name); for IC (total growth inhibition): read-out: TGI
Text: as §1, §2, §3, §4, §5, §6, §7

HeLa-APL = test: Inhibition of cell growth by colorimetric SRB assay, HELA-APL; settings: Homo sapiens; for CC50: HELA-APL, 48 hours exposure, cell killing, read-out: LC50 (the source's name)
Text: as §1, §2, §3, §4, §5, §6, §7

With `C/C=C\[C@H](C)[C@H]1OC1(C)[C@@H](O[Si](C)(C)C(C)(C)C)[C@@H](COC(C)=O)C(=O)[C@H](COC(C)=O)[C@H](O)CC(=O)CC` (stereo partly shown) [Compound 44] the GI50 (DU-145) was 4.99 µM, the CC50 (DU-145) was 17.5 µM and the IC (total growth inhibition) (DU-145) was 10.4 µM. It also gave a GI50 (LNCaP) of 3.77 µM, a CC50 (LNCaP) of 16.6 µM and an IC (total growth inhibition) (LNCaP) of 7.88 µM. For the same molecule, the GI50 (IGROV) was 4.13 µM, the CC50 (IGROV) was 14.2 µM and the IC (total growth inhibition) (IGROV) was 7.67 µM. For the same molecule, the GI50 (IGROV-ET) was 4.15 µM, the CC50 (IGROV-ET) was 15.8 µM and the IC (total growth inhibition) (IGROV-ET) was 8.09 µM. For the same molecule, the GI50 (SK-MEL-28) was 3.84 µM, the CC50 (SK-MEL-28) was 12.6 µM and the IC (total growth inhibition) (SK-MEL-28) was 6.96 µM. For the same molecule, the GI50 (A-549) was 4.01 µM, the CC50 (A-549) was 15.4 µM and the IC (total growth inhibition) (A-549) was 7.87 µM. For the same molecule, the GI50 (K-562) was 6.1 µM, the CC50 (K-562) was 17.5 µM and the IC (total growth inhibition) (K-562) was 11.4 µM. It also gave a GI50 (PANC-1) of 3.73 µM, a CC50 (PANC-1) of 13.8 µM and an IC (total growth inhibition) (PANC-1) of 7.2 µM. For the same molecule, the GI50 (HT-29) was 6.22 µM, the CC50 (HT-29) was 17 µM and the IC (total growth inhibition) (HT-29) was 17.5 µM. It also gave a GI50 (LoVo) of 4.05 µM, an LC50 (LoVo) of 17.5 µM and an IC (total growth inhibition) (LoVo) of 8.99 µM. It also gave a GI50 (LoVo-Dox) of 4.27 µM, an LC50 (concentration for 50% cell killing) (LoVo-Dox) of 17.5 µM and an IC (total growth inhibition) (LoVo-Dox) of 8.9 µM. It also gave a GI50 (HeLa) of 3.91 µM, a CC50 (HeLa) of 14.7 µM and an IC (total growth inhibition) (HeLa) of 7.59 µM. For the same molecule, the GI50 (HeLa-APL; 48 h) was 3.77 µM, the IC (total growth inhibition) (HeLa-APL; 48 h, read-out: TGI) was 9.83 µM and the CC50 (HeLa-APL) was 17.5 µM.
`C/C=C\[C@H](C)[C@H]1OC1(C)[C@@H](O[Si](C)(C)C(C)(C)C)[C@@H](COC(C)=O)C(=O)[C@H](COC(C)=O)[C@@H](CC(=O)CC)OC(C)=O` (stereo partly shown) [Compound 45] showed a GI50 (DU-145) of 16.3 µM, a CC50 (DU-145) of 16.3 µM and an IC (total growth inhibition) (DU-145) of 16.3 µM. It also gave a GI50 (LNCaP) of 8.34 µM, a CC50 (LNCaP) of 16.3 µM and an IC (total growth inhibition) (LNCaP) of 16.3 µM. For the same molecule, the GI50 (IGROV) was 16.3 µM, the CC50 (IGROV) was 16.3 µM and the IC (total growth inhibition) (IGROV) was 16.3 µM. The GI50 (IGROV-ET) was 15.8 µM, the CC50 (IGROV-ET) was 16.3 µM and the IC (total growth inhibition) (IGROV-ET) was 16.3 µM. The GI50 (SK-MEL-28) was 16.3 µM, the CC50 (SK-MEL-28) was 16.3 µM and the IC (total growth inhibition) (SK-MEL-28) was 16.3 µM. The GI50 (A-549) was 16.3 µM, the CC50 (A-549) was 16.3 µM and the IC (total growth inhibition) (A-549) was 16.3 µM. It also gave a GI50 (K-562) of 16.3 µM, a CC50 (K-562) of 16.3 µM and an IC (total growth inhibition) (K-562) of 16.3 µM. The GI50 (PANC-1) was 8.24 µM, the CC50 (PANC-1) was 16.3 µM and the IC (total growth inhibition) (PANC-1) was 16.3 µM. For the same molecule, the GI50 (HT-29) was 16.3 µM, the CC50 (HT-29) was 16.3 µM and the IC (total growth inhibition) (HT-29) was 16.3 µM. For the same molecule, the GI50 (LoVo) was 8.26 µM, the LC50 (LoVo) was 16.3 µM and the IC (total growth inhibition) (LoVo) was 16.3 µM. It also gave a GI50 (LoVo-Dox) of 10.5 µM, an LC50 (concentration for 50% cell killing) (LoVo-Dox) of 16.3 µM and an IC (total growth inhibition) (LoVo-Dox) of 16.3 µM. For the same molecule, the GI50 (HeLa) was 16.3 µM, the CC50 (HeLa) was 16.3 µM and the IC (total growth inhibition) (HeLa) was 16.3 µM. For the same molecule, the GI50 (HeLa-APL; 48 h) was 16.3 µM and the CC50 (HeLa-APL) was 16.3 µM.
For `C/C=C\[C@H](C)[C@H]1OC1(C)[C@@H](O[Si](C)(C)C(C)(C)C)[C@@H](COC(C)=O)C(=O)[C@H](CO)[C@@H](O)CC(=O)CC` (stereo partly shown) [Compound 46], the GI50 (DU-145) was 9.65 µM, the CC50 (DU-145) was 18.9 µM and the IC (total growth inhibition) (DU-145) was 18.9 µM. For the same molecule, the GI50 (LNCaP) was 5.24 µM, the CC50 (LNCaP) was 15.6 µM and the IC (total growth inhibition) (LNCaP) was 9.06 µM. The GI50 (IGROV) was 7.74 µM, the CC50 (IGROV) was 18.9 µM and the IC (total growth inhibition) (IGROV) was 18.9 µM. The GI50 (IGROV-ET) was 7.39 µM, the CC50 (IGROV-ET) was 18.9 µM and the IC (total growth inhibition) (IGROV-ET) was 18.9 µM. For the same molecule, the GI50 (SK-MEL-28) was 9.89 µM, the CC50 (SK-MEL-28) was 18.9 µM and the IC (total growth inhibition) (SK-MEL-28) was 18.9 µM. The GI50 (A-549) was 13.4 µM, the CC50 (A-549) was 18.9 µM and the IC (total growth inhibition) (A-549) was 18.9 µM. The GI50 (K-562) was 12 µM, the CC50 (K-562) was 18.9 µM and the IC (total growth inhibition) (K-562) was 18.9 µM. For the same molecule, the GI50 (PANC-1) was 7.38 µM, the CC50 (PANC-1) was 18.9 µM and the IC (total growth inhibition) (PANC-1) was 18.9 µM. For the same molecule, the GI50 (HT-29) was 15 µM, the CC50 (HT-29) was 18.9 µM and the IC (total growth inhibition) (HT-29) was 18.9 µM. It also gave a GI50 (LoVo) of 4.37 µM, an LC50 (LoVo) of 18.9 µM and an IC (total growth inhibition) (LoVo) of 10 µM. It also gave a GI50 (LoVo-Dox) of 6.15 µM, an LC50 (concentration for 50% cell killing) (LoVo-Dox) of 18.9 µM and an IC (total growth inhibition) (LoVo-Dox) of 18.9 µM. For the same molecule, the GI50 (HeLa) was 8.81 µM, the CC50 (HeLa) was 18.9 µM and the IC (total growth inhibition) (HeLa) was 18.9 µM. It also gave a GI50 (HeLa-APL; 48 h) of 10.1 µM and a CC50 (HeLa-APL) of 18.9 µM.
